Measured values taken from PubChem BioAssay AID330 (DTP/NCI, 2004).
Values joined by “and” are separate entries in the source; they are usually repeats but may differ in a detail not shown here. Equal entries are not always repeated. Toxic doses and inconclusive results are not listed. Rule for the calls: active = survival T/C of 150% or more; inactive = T/C below 125% in these data.

Test system: P388 leukemia ip, CD2F1 mice, survival T/C
Assay: NCI In Vivo Anticancer Drug Screen. Data for tumor model P388 Leukemia (intraperitoneal) in CD2F1 (CDF1) mice
Conditions: endpoint: median survival time, higher = longer survival
Method in brief: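 Mice carrying the transplanted tumor received test compound or vehicle. Survival was recorded in each group, and the value is the treated-group measurement divided by that of the vehicle-treated control group.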

[1] = dose: 100.0 mg/kg/injection, schedule: Q04DX002 (ip), vehicle: saline with Tween-80
[2] = dose: 200.0 mg/kg/injection, schedule: Q04DX002 (ip), vehicle: saline with Tween-80
[3] = dose: 6.25 mg/kg/injection, schedule: Q01DX009 (ip), vehicle: Klucel (hydroxypropylcellulose) (HPC)
[4] = dose: 50.0 mg/kg/injection, schedule: Q01DX009 (ip), vehicle: saline with Tween-80
[5] = dose: 100.0 mg/kg/injection, schedule: Q01DX009 (ip), vehicle: saline with Tween-80
[6] = dose: 200.0 mg/kg/injection, schedule: Q01DX009 (ip), vehicle: saline with Tween-80
[7] = dose: 60.0 mg/kg/injection, schedule: Q01DX005 (ip), vehicle: saline with Tween-80
[8] = dose: 120.0 mg/kg/injection, schedule: Q01DX005 (ip), vehicle: saline with Tween-80
[9] = dose: 240.0 mg/kg/injection, schedule: Q01DX005 (ip), vehicle: saline with Tween-80
[10] = dose: 100.0 mg/kg/injection, schedule: Q01DX005 (ip), vehicle: saline with Tween-80
[11] = dose: 200.0 mg/kg/injection, schedule: Q01DX005 (ip), vehicle: saline with Tween-80
[12] = dose: 50.0 mg/kg/injection, schedule: Q01DX005 (ip), vehicle: Klucel (hydroxypropylcellulose) (HPC)
[13] = dose: 100.0 mg/kg/injection, schedule: Q01DX005 (ip), vehicle: Klucel (hydroxypropylcellulose) (HPC)
[14] = dose: 200.0 mg/kg/injection, schedule: Q01DX005 (ip), vehicle: Klucel (hydroxypropylcellulose) (HPC)

Measured: T/C

CCCCCCC1CC1C(=O)NCCCCCN=C(N)N (stereo unspecified)
inactive: dose: 7.5 mg/kg/injection, schedule: Q01DX009 (ip), vehicle: Klucel (hydroxypropylcellulose) (HPC) 100 % of control | dose: 15.0 mg/kg/injection, schedule: Q01DX009 (ip), vehicle: Klucel (hydroxypropylcellulose) (HPC) 100 % of control | dose: 30.0 mg/kg/injection, schedule: Q01DX009 (ip), vehicle: Klucel (hydroxypropylcellulose) (HPC) 107 % of control

Cc1ccc(N=c2scc(-c3ccccc3)n2-c2ccccc2)cc1
inactive: [1] 102 % of control | [2] 93 % of control | dose: 400.0 mg/kg/injection, schedule: Q04DX002 (ip), vehicle: saline with Tween-80 95 % of control

COc1cc(C2=N/C(=C/c3cccs3)C(=O)O2)cc(OC)c1OC
inactive: [3] 98 % of control | dose: 12.5 mg/kg/injection, schedule: Q01DX009 (ip), vehicle: Klucel (hydroxypropylcellulose) (HPC) 108 % of control | dose: 25.0 mg/kg/injection, schedule: Q01DX009 (ip), vehicle: Klucel (hydroxypropylcellulose) (HPC) 106 % of control

OCC1OC(Oc2ccc(Cl)cc2)C(O)C1O (stereo unspecified)
inactive: dose: 50.0 mg/kg/injection, schedule: Q04DX002 (ip), vehicle: saline with Tween-80 105 % of control | [1] 98 % of control | [2] 112 % of control

CC(C)=C[Si](C)(C)C
inactive: [4] 103 % of control | [5] 110 % of control | [6] 103 % of control

CN(C)c1ccc(/C(O)=C\c2ncnc3ccccc23)cc1
inactive: [7] 94 % of control | [8] 94 % of control | [9] 93 % of control

C[C@@H](O)[C@H](NSc1ccccc1[N+](=O)[O-])C(=O)NCCc1nc(-c2nc(C(=O)NCCCBr)cs2)cs1
inactive: dose: 6.25 mg/kg/injection, schedule: Q01DX005 (ip), vehicle: saline with Tween-80 93 % of control | dose: 12.5 mg/kg/injection, schedule: Q01DX005 (ip), vehicle: saline with Tween-80 95 % of control | dose: 25.0 mg/kg/injection, schedule: Q01DX005 (ip), vehicle: saline with Tween-80 90 % of control | [10] 97 % of control | [11] 86 % of control

COc1ccc(NC(=O)N2CC3CCN2CC3)cc1
inactive: [7] 99 % of control | [8] 93 % of control | [9] 90 % of control

CC(=O)OCC#CCN1CCC(C)CC1
inactive: dose: 50.0 mg/kg/injection, schedule: Q01DX005 (ip), vehicle: saline 97 % of control | dose: 100.0 mg/kg/injection, schedule: Q01DX005 (ip), vehicle: saline 95 % of control | dose: 200.0 mg/kg/injection, schedule: Q01DX005 (ip), vehicle: saline 102 % of control

N#Cc1cn(Cc2ccccc2)c2ccccc2c1=O
inactive: [12] 100 % of control | [13] 103 % of control | [14] 103 % of control

CC1N=C(SCc2c(F)cccc2Cl)N2C(C)N=C(SCc3c(F)cccc3Cl)N12 (stereo unspecified)
inactive: dose: 50.0 mg/kg/injection, schedule: Q01DX005 (ip), vehicle: saline with Tween-80 96 % of control | [10] 96 % of control | [11] 93 % of control

COc1cc2c(c(OC)c1OC)-c1ccc(N)c(=O)cc1[C@@H](NC(C)=O)CC2
inactive: dose: 0.5 mg/kg/injection, schedule: Q01DX010 (ip), vehicle: saline 109 % of control | dose: 1.0 mg/kg/injection, schedule: Q01DX010 (ip), vehicle: saline 118 % of control | dose: 3.12 mg/kg/injection, schedule: Q01DX009 (ip), vehicle: Klucel (hydroxypropylcellulose) (HPC) 86 % of control | [3] 108 % of control

C=CCn1c(SC)nc2c(c1=O)CCCC2
inactive: [7] 108 % of control | [8] 97 % of control

CCC1(c2ccccc2)CCCC(C(N)=O)C1=O (stereo unspecified)
inactive: dose: 100.0 mg/kg/injection, schedule: Q01DX001 (ip), vehicle: Klucel (hydroxypropylcellulose) (HPC) 100 % of control | dose: 200.0 mg/kg/injection, schedule: Q01DX001 (ip), vehicle: Klucel (hydroxypropylcellulose) (HPC) 99 % of control | dose: 400.0 mg/kg/injection, schedule: Q01DX001 (ip), vehicle: Klucel (hydroxypropylcellulose) (HPC) 101 % of control

Cc1cc(C)nc(NS(=O)(=O)c2ccc(NC(=O)Nc3ccc([N+](=O)[O-])cc3Cl)cc2)n1
inactive: dose: 50.0 mg/kg/injection, schedule: Q01DX009 (ip), vehicle: Klucel (hydroxypropylcellulose) (HPC) 94 % of control | dose: 100.0 mg/kg/injection, schedule: Q01DX009 (ip), vehicle: Klucel (hydroxypropylcellulose) (HPC) 86 % of control

S=C1NC2(CCCCCC2)NN1c1ccccc1
inactive: [4] 97 % of control | [5] 94 % of control | [6] 91 % of control

COc1cc2oc(=O)ccc2cc1[C@@H]1OC(=O)C2(C)O[C@@H]12 (stereo partly specified)
inactive: dose: 2.5 mg/kg/injection, schedule: Q01DX009 (ip), vehicle: saline 112 % of control | dose: 5.0 mg/kg/injection, schedule: Q01DX009 (ip), vehicle: saline 93 % of control | dose: 6.0 mg/kg/injection, schedule: Q01DX009 (ip), vehicle: Klucel (hydroxypropylcellulose) (HPC) 107 % of control | dose: 6.0 mg/kg/injection, schedule: Q01DX009 (ip), vehicle: saline with Tween-80 110 % of control | dose: 8.0 mg/kg/injection, schedule: Q01DX009 (ip), vehicle: Klucel (hydroxypropylcellulose) (HPC) 114 % of control | dose: 8.0 mg/kg/injection, schedule: Q01DX009 (ip), vehicle: saline with Tween-80 117 % of control | dose: 10.0 mg/kg/injection, schedule: Q01DX009 (ip), vehicle: Klucel (hydroxypropylcellulose) (HPC) 105 % of control | dose: 10.0 mg/kg/injection, schedule: Q01DX009 (ip), vehicle: saline with Tween-80 110 % of control | dose: 12.0 mg/kg/injection, schedule: Q01DX009 (ip), vehicle: Klucel (hydroxypropylcellulose) (HPC) 103 % of control | dose: 12.0 mg/kg/injection, schedule: Q01DX009 (ip), vehicle: saline with Tween-80 110 % of control

Nc1ccc(N2CCSCC2)nc1
inactive: dose: 50.0 mg/kg/injection, schedule: Q01DX009 (ip), vehicle: saline 104 % of control | dose: 100.0 mg/kg/injection, schedule: Q01DX009 (ip), vehicle: saline 101 % of control | dose: 200.0 mg/kg/injection, schedule: Q01DX009 (ip), vehicle: saline 96 % of control

O=C(CN=Cc1ccc(Cl)cc1Cl)NNC(=O)c1ccc(Cl)cc1Cl
inactive: [12] 92 % of control | [13] 96 % of control | [14] 92 % of control

Cc1ncc(C(N)=S)c(N)n1
inactive: [4] 103 % of control | [5] 108 % of control | [6] 105 % of control

OC(c1ccccc1)C1CC=CCC1 (stereo unspecified)
inactive: dose: 12.5 mg/kg/injection, schedule: Q04DX003 (ip), vehicle: saline 97 % of control | dose: 25.0 mg/kg/injection, schedule: Q04DX003 (ip), vehicle: saline with Tween-80 101 % of control and 98 % of control | dose: 25.0 mg/kg/injection, schedule: Q04DX003 (ip), vehicle: saline 105 % of control | dose: 50.0 mg/kg/injection, schedule: Q04DX003 (ip), vehicle: saline with Tween-80 111 % of control and 96 % of control | dose: 50.0 mg/kg/injection, schedule: Q04DX003 (ip), vehicle: saline 109 % of control | dose: 100.0 mg/kg/injection, schedule: Q04DX003 (ip), vehicle: saline with Tween-80 99 % of control | dose: 100.0 mg/kg/injection, schedule: Q04DX003 (ip), vehicle: saline 103 % of control | dose: 200.0 mg/kg/injection, schedule: Q04DX003 (ip), vehicle: saline with Tween-80 99 % of control
